Results published in patent publication US20250017889A1, “INHIBITORS OF P1B-TYPE ATPASES” (THE CURATORS OF THE UNIVERSITY OF MISSOURI, priority 2021, published 2025).

Legend:
ATP7B = biological target: T1, ATP7B (Homo sapiens, UniProt P35670); experiment: Microscale thermophoresis (MST) binding to GFP-ATP7B in HEK293 cell lysates; conditions: MST analysis; read-out: affinity for ATP7B
T1 construct: expressed in transfected cells; host or cells: HEK293 (detergent-free lysate)
T1 sequence (P35670 1-1465): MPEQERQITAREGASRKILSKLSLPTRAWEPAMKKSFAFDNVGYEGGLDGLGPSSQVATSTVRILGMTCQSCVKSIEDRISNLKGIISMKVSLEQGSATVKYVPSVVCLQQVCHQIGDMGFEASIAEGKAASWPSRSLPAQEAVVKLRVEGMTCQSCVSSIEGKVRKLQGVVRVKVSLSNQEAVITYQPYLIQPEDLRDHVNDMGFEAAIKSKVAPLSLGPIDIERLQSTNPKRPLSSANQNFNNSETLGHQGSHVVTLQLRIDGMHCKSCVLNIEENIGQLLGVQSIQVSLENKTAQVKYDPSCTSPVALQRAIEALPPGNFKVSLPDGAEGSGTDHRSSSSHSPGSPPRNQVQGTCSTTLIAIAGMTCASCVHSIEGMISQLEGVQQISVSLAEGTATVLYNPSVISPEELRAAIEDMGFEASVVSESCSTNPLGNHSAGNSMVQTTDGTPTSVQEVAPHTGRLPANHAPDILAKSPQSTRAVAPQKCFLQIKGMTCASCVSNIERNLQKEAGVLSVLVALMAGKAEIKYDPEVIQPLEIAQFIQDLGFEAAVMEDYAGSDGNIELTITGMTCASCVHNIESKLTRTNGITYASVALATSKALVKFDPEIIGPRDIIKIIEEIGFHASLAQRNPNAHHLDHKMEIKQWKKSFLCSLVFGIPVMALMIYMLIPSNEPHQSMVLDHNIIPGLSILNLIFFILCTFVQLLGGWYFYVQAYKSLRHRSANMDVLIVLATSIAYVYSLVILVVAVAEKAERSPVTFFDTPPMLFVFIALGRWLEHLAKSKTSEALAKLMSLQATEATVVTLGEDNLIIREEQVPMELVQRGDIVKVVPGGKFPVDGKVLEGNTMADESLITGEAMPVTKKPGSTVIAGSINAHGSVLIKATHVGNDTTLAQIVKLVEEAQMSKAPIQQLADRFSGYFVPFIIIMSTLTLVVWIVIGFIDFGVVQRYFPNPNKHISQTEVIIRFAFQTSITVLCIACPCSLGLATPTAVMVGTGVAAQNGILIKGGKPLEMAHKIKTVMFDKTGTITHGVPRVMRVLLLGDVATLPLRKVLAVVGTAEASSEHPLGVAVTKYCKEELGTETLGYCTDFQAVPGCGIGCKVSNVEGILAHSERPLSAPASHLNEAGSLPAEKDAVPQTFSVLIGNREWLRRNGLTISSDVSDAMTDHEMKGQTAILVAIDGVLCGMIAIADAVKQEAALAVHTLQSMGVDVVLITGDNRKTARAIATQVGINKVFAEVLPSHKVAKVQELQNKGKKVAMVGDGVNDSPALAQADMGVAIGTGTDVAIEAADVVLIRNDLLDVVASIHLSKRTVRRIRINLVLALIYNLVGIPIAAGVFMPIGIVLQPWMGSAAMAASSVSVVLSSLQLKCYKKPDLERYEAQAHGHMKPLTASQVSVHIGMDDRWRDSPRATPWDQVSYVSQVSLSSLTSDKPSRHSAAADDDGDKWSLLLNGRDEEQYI
Text: Coordinating residues D935 and E798 are predicted to bind copper during transport.

[1] = Cytotoxicity in B16 cells by MTT and crystal violet assays; type: cell-based; conditions: mouse
Text: This is consistent with lower affinity of MKV1 for ATP7A (FIG. 6E).

[2] = tested on: Cu^S cells complemented with ATP7B; experiment: Copper toxicity in Cu^S cells complemented with ATP7B; type: cell-based; conditions: 10 μM, 50% cytotoxic copper concentration
Text: 8A illustrates a copper sensitive fibroblast cell line (Cu^S) generated by deleting genes encoding ATP7A, metallothionein-I (MT-I) and metallothionein-II (MT-II). Cu^S cells cannot be propagated in regular medium (DMEM) unless a copper chelator (BCS) is supplied to the medium.
Cu^S cell lines were derived that were complemented by either ATP7A, ATP7B or MT-II.

ATP7B (hATP7B) = biological target: T2, ATP7B (hATP7B) (Homo sapiens, UniProt P35670); experiment: Tyrosinase activation in B16 ATP7A^KO cells transfected with human ATP7B; type: cell-based; conditions: 10 μM, 24 h, ATP7A^KO melanoma cells
T2 construct: expressed in transfected cells; host or cells: B16 melanoma ATP7A^KO cells (mouse), transient transfection
T2 sequence (P35670 1-1465): T1 sequence (P35670 1-1465)
Text: Prior studies have shown that exogenously expressed ATP7B can activate tyrosinase in cells lacking ATP7A. For these studies, a B16 melanoma cell model was used in which tyrosinase activity can be detected by in situ oxidation of L-DOPA to DOPAchrome (10A). As shown earlier, B16 cells deleted for the ATP7A gene (ATP7A^KO) completely lack tyrosinase activity (10B). […] Quantification of tyrosinase activity in these cells is shown (10G). Data represent mean±SEM; ****p<0.0001 of three independent replicates.

[3] = tested on: 4T1 breast cancer cells and LLC lung cancer cells; experiment: In vitro scratch assay of cell motility (gap closure); type: cell-based; conditions: 10 μM
Text: LOX activity is known to be important for the motility of cancer cells. In this assay, a gap (scratch) was created in a confluent monolayer of cells and closure of the gap in the presence or absence of MKV3 was monitored by video microscopy. […] Dashed lines indicate scratch starting points (12A and 12C). […] The requirement for ATP7A in cancer cell motility is consistent with its role in activation of lysyl oxidase enzymes.

4T1 mammary cancer cells = experiment: Orthotopic 4T1 mammary tumor growth and lung metastasis in mice; type: in vivo, BALB/c mice
[4] = tested on: ΔcopA/ΔcopB strain of S. aureus; experiment: Growth of copper-sensitive ΔcopA/ΔcopB mutant strain of S. aureus; type: cell-based, Staphylococcus aureus; conditions: MKV3 with copper 50 μM
Procedure: Methicillin-resistant Staphylococcus aureus (MRSA) is a human pathogen that expresses two Cu-transporting P1B-type ATPases, CopA and CopB, which are known to enhance the virulence of this bacterium. 19A illustrates CopA and CopB copper exporters at the plasma membrane of S. aureus. […] The growth of the ΔcopA/ΔcopB strain was inhibited by approximately 50% when copper alone (50 μM) was added to the culture medium.
Wild type MRSA expresses two copper-exporting P1B-type ATPases, CopA and CopB that are required for copper tolerance (FIG. 19A). […] The same experiment was performed using MRSA in which both CopA and CopB genes were deleted (ΔcopA/ΔcopB). Consistent with the known role of CopA and CopB in copper tolerance, the growth of the ΔcopA/ΔcopB strain was inhibited by approximately 50% when copper alone (50 μM) was added to the culture medium (FIG. 19C).

[5] = intravenous 50 mg/kg every Tuesday and Thursday for 3 weeks
[6] = subcutaneous 50 mg/kg every Monday, Wednesday and Friday for 3 weeks

For N#CC(C(=O)Nc1cccc(C(F)(F)F)c1)C(=S)Nc1ccccc1Cl (centres unmarked) [MKV3], the Kd (ATP7B) was 0.076 µM, the CC50 [1] was ~75 µM and the copper toxicity [2] was “enhanced copper toxicity”. The “activation of tyrosinase activity by ATP7B” value (ATP7B (hATP7B)) was “prevented activation of tyrosinase activity”, the “rate of gap closure” value ([3]; 4T1 cells) was “significantly reduced” and the “rate of gap closure” value ([3]; LLC cells) was “significantly reduced”. The metastatic lung burden (4T1 mammary cancer cells; [5]) was “reduced”, the “weights of 4T1 primary tumors” value (4T1 mammary cancer cells; [5]) was “reduced” and the lung metastasis (4T1 mammary cancer cells; [6]) was “significantly reduced”. For the same compound, the primary tumor growth (4T1 mammary cancer cells; [6]) was “significantly reduced” and the “copper sensitivity in the ΔcopA/ΔcopB strain” value [4] was “did not increase copper sensitivity”.
